Experimental findings from US20250243267A1, “COMBINATION OF A GREMLIN-1 ANTAGONIST WITH A CYTIDINE ANALOGUE OR DEOXYCYTIDINE ANALOGUE” (UCB BIOPHARMA SRL, priority 2022, published 2025) are described below.

The structures appear in SMILES notation. Several values for one entry are separate records, joined by “and”; a condition that tells them apart may be missing. Equal values may be shown once.

The test has as its system LSL-KrasG12D/+; LSL-Trp53R172H/+; Pdx1-Cre (KPC) mouse model of pancreatic cancer. As to the kind of experiment: Survival of KPC mice with pancreatic cancer from start of treatment (Kaplan-Meier, Log-Rank). The class given is in vivo. The source says: • Test antibody and drug Anti-gremlin-1 antibody-Ab7326 mlgG1-APP.4405.IgG.mFc-Lot number-PB 4682 • Vehicle-Phosphate Buffered Saline pH 7.4 (provided by the Beatson Institute) • Gemcitabine-(provided by the Beatson Institute, purchased from LC Labs, Woburn, MA, USA) in Phosphate Buffered Saline pH 7.4. • Genetically Modified Mice • LSL-Kras^G12D/+; Trp53^R172H/+; Pdx1-Cre (KPC) mice have been described previously (Hingorani et al., 2005). Mice were generated by crossing mice bearing Pdx1-Cre, and conditional LSL-KrasG12D or LSL-Trp53R172H alleles (strains 01XJ6 and 01XL9, Mouse Models of Human Cancer Consortium [MMHCC], NCI-Frederick, Frederick, MD, USA). Mice on a mixed background were bred in-house at the CRUK Beatson Institute and maintained in conventional caging with environmental enrichment, access to standard chow and water ad libitum. Genotyping was performed by Transnetyx (Cordoba, TN, USA). Mice of both sexes were recruited onto study. All animal experiments were performed under a UK Home Office licence and approved by the University of Glasgow Animal Welfare and Ethical Review Board.
Mice were monitored 3 times weekly until a diagnosis of pancreatic cancer was made by abdominal palpation and confirmed by ultrasound imaging. […] Mice were monitored daily and sacrificed when reaching ethical endpoint (symptoms include abdominal distension, cachexia, intermittent hunching or reduced mobility, piloerection, mild diarrhoea, anaemia). […]
Next, the efficacy of gremlin-1 inhibition as a potential therapeutic approach for pancreatic cancer was tested in the KPC model. […] A cohort of KPC mice was established and mice were monitored until they developed pancreatic cancer detectable by palpation.
Mice were monitored at least weekly by palpation until pancreatic tumours were detectable. […] Mice remained on study and were closely monitored until ethical endpoint was reached, at which time they were sacrificed as per institutional guidelines.

In the case of `Nc1ccn([C@@H]2O[C@H](CO)[C@@H](O)C2(F)F)c(=O)n1` [Gemcitabine, 2′-deoxy-2′,2′-difluorocytidine, reference compound], where the note is “KPC mice, result in words”, the “survival compared with vehicle controls” value is reported as “negligible benefit”. For the same molecule, the “Median (days) survival” value (KPC mice, survival from start of treatment, dosing twice weekly (Ab7326 mlgG1 30 mg/kg s.c.; gemcitabine 100 mg/kg i.p.)) was determined as 24 days. Besides, the “Days on Rx (individual mice)” value (one value per KPC mouse, * denotes smaller than average tumour at start of treatment) was 3 days and 34 days and 24 days and 44 days and 17 days.
